Assay results from patent US6890708B2, “Method for improving the quality of sperm for artificial insemination of animals” (priority 2000, dated 2005).

Tested on: boar spermatozoa
Test: Sperm viability in vitro (motility, acrosome morphology), Example I
Format: cell-based, pig
Method: Aliquots of 80 μl of the PMN suspension (see, PMN isolation and preparation of PMNs) in TM or TM-s, with either intact or inactivated complement, were transferred to a 96-well polystyrene microtest plate. To each well, 20 μl of sperm suspension (see, preparation of semen samples) was added and the microtest plate was placed in a humidified incubator at 38° C. with 5% CO2 in air. […] The samples were incubated with gentle swirling on a test plate shaker. After 15, 30, 45, 60 or 90 min., samples were quantitatively transferred into tubes containing an equal volume of 40 mg ml^−1 heparin (Sigma) in PBS. The heparin facilitates dissociation of agglutinated PMNs. The samples were thoroughly mixed, left for 15 min., and mixed again. Subsamples of 75 μl were fixed by addition of 25 μl of 2% (v/v) glutaraldehyde (Fluka, Brunschwig chemie, Amsterdam, The Netherlands) in PBS. “Blank” samples, i.e., sperm without PMNs (80 μl TM-s mixed with 20 μl sperm suspension), were incubated in parallel to monitor sperm survival during the treatment. “Reference” samples, i.e., frozen-thawed (killed) semen, were incubated in parallel with the PMNs as a reference for the phagocytotic activity of the PMNs. The frozen-thawed semen was taken from a large stock of semen from one ejaculate and washed 3 times in PBS prior to use.
For evaluation of phagocytosis, wet mounts of the fixed samples were examined with a combination of phase-contrast and fluorescence microscopy (Olympus BH2, Tokyo, Japan) at 400× magnification. The mounts enabled observation and counting of fluorescently labeled spermatozoa inside and outside the phagocytes. By focusing at different levels in the mount, spermatozoa that were located above or below the PMN could be distinguished from those that were phagocytosed. […] Two hundred spermatozoa were evaluated and classified as inside or outside the PMN (i.e., phagocytosed or not phagocytosed). The same fixed mounts were used to assess the acrosome morphology of the non-phagocytosed spermatozoa at the moment of fixation. One hundred cells were classified using phase-contrast microscopy at 400× magnification, as NAR (normal apical ridge), NAR' (slightly altered normal apical ridge), DAR (damaged apical ridge), MAR (missing apical ridge) and LAC (loose acrosomal cap), as described by Pursel et al. (Pursel V G, Schulman L L and Johnson L A, 1978, Distribution and morphology of fresh and frozen-thawed sperm in the reproductive tract of gilts after insemination Biology of Reproduction 19 69-76.)

[1] = Exp. 1, after adding active compound and pre-incubation 30 min. at 38° C.
[2] = Exp. 1, blank samples without PMN, phagocytosis time 60 min.
[3] = Exp. 1, blank samples without PMN, preincubated 30 min. at 38° C., phagocytosis time 30 min.
[4] = Exp. 2, 0.2 mM, after adding active compound, without pre-incubation
[5] = Exp. 2, 0.2 mM, blank samples without PMN, without pre-incubation, phagocytosis time 30 min.
[6] = Exp. 2, 0.5 mM, after adding active compound, after pre-incubation
[7] = Exp. 2, 0.5 mM, after adding active compound, without pre-incubation
[8] = Exp. 2, 0.5 mM, blank samples without PMN, after pre-incubation
[9] = Exp. 2, 0.5 mM, blank samples without PMN, without pre-incubation, phagocytosis time 30 min.
[10] = Exp. 2, 1 mM, after adding active compound, after pre-incubation
[11] = Exp. 2, 1 mM, after adding active compound, without pre-incubation
[12] = Exp. 2, 1 mM, blank samples without PMN, after pre-incubation
[13] = Exp. 2, 1 mM, blank samples without PMN, without pre-incubation, phagocytosis time 30 min.
[14] = Exp. 2, 2 mM, after adding active compound, after pre-incubation
[15] = Exp. 2, 2 mM, after adding active compound, without pre-incubation
[16] = Exp. 2, 2 mM, blank samples without PMN, after pre-incubation
[17] = Exp. 2, 2 mM, blank samples without PMN, without pre-incubation, phagocytosis time 30 min.
[18] = Exp. 3, 1 mM, after pre-incubation of sperm 30 min. at 38° C.
[19] = Exp. 3, 1 caffeine, blank samples without PMN, after pre-incubation at 38° C., phagocytosis time 30 min.

## Cn1c(=O)c2c(ncn2C)n(C)c1=O [caffeine, 1,3,7-Trimethylxanthine]
[1]
  % DAR: 30%
  % LAC: 15%
  % MAR: 02%
  % NAR: 53%
[2]
  % LAC: 22%
  % MAR (second value of NAR-MAR-MAR-LAC): 36%
  % MAR (third value of NAR-MAR-MAR-LAC): 05%
  % NAR: 37%
[3]
  % LAC: 21%
  % MAR (second value of NAR-MAR-MAR-LAC): 39%
  % MAR (third value of NAR-MAR-MAR-LAC): 03%
  % NAR: 37%
[4]
  % DAR: 12%
  % LAC: 03%
  % MAR: 01%
  % motile sperm: 80%
[5]
  % DAR: 12%
  % LAC: 03%
  % MAR: 00%
  % NAR: 85%
[6]
  % DAR: 14%
  % LAC: 02%
  % MAR: 01%
  % NAR: 83%
  % motile sperm: 80%
[7]
  % DAR: 12%
  % LAC: 02%
  % MAR: 02%
  % NAR: 84%
  % motile sperm: 80%
[8]
  % DAR: 12%
  % LAC: 02%
  % MAR: 01%
  % NAR: 85%
[9]
  % DAR: 10%
  % LAC: 03%
  % MAR: 00%
  % NAR: 87%
[10]
  % DAR: 16%
  % LAC: 06%
  % MAR: 01%
  % NAR: 77%
  % motile sperm: 80%
[11]
  % DAR: 09%
  % LAC: 03%
  % MAR: 01%
  % NAR: 87%
  % motile sperm: 80%
[12]
  % DAR: 21%
  % LAC: 06%
  % MAR: 01%
  % NAR: 72%
[13]
  % DAR: 10%
  % LAC: 05%
  % MAR: 00%
  % NAR: 85%
[14]
  % DAR: 20%
  % LAC: 05%
  % MAR: 02%
  % NAR: 73%
  % motile sperm: 80%
[15]
  % DAR: 13%
  % LAC: 04%
  % MAR: 01%
  % NAR: 82%
  % motile sperm: 80%
[16]
  % DAR: 24%
  % LAC: 05%
  % MAR: 01%
  % NAR: 70%
[17]
  % DAR: 12%
  % LAC: 08%
  % MAR: 01%
  % NAR: 79%
[18]
  % DAR: 24%
  % LAC: 08%
  % MAR: 01%
  % NAR: 67%
[19]
  % DAR: 24%
  % LAC: 08%
  % MAR: 02%
  % NAR: 66%
